Measurements reported in patent publication US5955440A, “Macrolide LHRH antagonists” (Abbott Laboratories, priority 1998, dated 1999).

Columns and labels:
[1] = target: T1, LHRH rat pituitary receptor (Rattus norvegicus, UniProt P30969); test: LHRH rat pituitary receptor binding (pKI); settings: negative logarithm of the equilibrium dissociation constants, Table 1, read-out: receptor binding affinity (pKI) (converted)
T1 construct: from tissue; host or cells: rat pituitary
T1 sequence (P30969 1-327): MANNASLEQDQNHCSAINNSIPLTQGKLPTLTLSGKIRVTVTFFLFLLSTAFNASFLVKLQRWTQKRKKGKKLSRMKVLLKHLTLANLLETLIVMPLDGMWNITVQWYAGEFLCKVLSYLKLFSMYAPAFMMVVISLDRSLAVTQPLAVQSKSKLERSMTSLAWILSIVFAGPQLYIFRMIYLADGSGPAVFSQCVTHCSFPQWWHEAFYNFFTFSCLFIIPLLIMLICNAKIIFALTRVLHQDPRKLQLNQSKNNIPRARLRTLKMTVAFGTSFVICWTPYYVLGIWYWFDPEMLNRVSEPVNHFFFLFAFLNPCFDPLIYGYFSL
Protocol: (§1) Representative compounds of the present invention were evaluated in in vitro tests for LHRH rat pituitary receptor binding (pKI) and for LH inhibition from rat pituitary cells for antagonist potency (pA2). The tests employed the methods detailed in F. Haviv, et al. J. Med. Chem., 32: 2340-2344 (1989). The receptor binding affinity (pKI) is the negative logarithm of the equilibrium dissociation constants.

rat pituitary cells = target: T2, rat pituitary cells (Rattus norvegicus, UniProt P30969); test: LH inhibition from rat pituitary cells, antagonist potency (pA2); type: cell-based; settings: negative log of antagonist concentration shifting the leuprolide response curve to two-fold higher concentration, Table 2
T2 construct: endogenous in cells; host or cells: rat pituitary cells
T2 sequence (P30969 1-327): T1 sequence (P30969 1-327)
Protocol: as §1
The pA2 value is the negative logarithm of the concentration of antagonist which shifts the response curve produced by the agonist leuprolide to two-fold higher concentration. Leuprolide is the LHRH agonist having the structure pyro-Glu^1 -His^2 -Trp^3 -Ser^4 -Tyr^5 -D-Leu^6 -Leu^7 -Arg^8 -Pro^9 -NHEt and is disclosed and claimed in U.S. Pat. No. 4,005,063. Typically pA2 values of 7.0 or greater are indicative of good LHRH antagonist potency.

Structure (SMILES) | Ki [1] [nM] | Kb (rat pituitary cells) [nM]
CC[C@H]1OC(=O)[C@H](C)[C@@H](O[C@H]2C[C@@](C)(OC)[C@@H](O)[C@H](C)O2)[C@H](C)[C@@H](O[C@@H]2O[C@H](C)C[C@H](N(C)C3CCC3)[C@H]2O)[C@](C)(OC)C[C@@H](C)C(=O)[C@H](C)[C@H]2N(CCc3ccc(F)c(Cl)c3)C(=O)O[C@]12C [Example 27, 3'-N-Desmethyl-3'-N-cyclobutyl-11-deoxy-11-[carboxy-(3-chloro-4-fluorophenethylamino)]-6-O-methyl-erythromycin A 11,12-(cyclic carbamate)] | 1.55 | 3.8
CC[C@H]1OC(=O)[C@H](C)[C@@H](O[C@H]2C[C@@](C)(OC)[C@@H](O)[C@H](C)O2)[C@H](C)[C@@H](O[C@@H]2O[C@H](C)C[C@H](N(C)C(C)C)[C@H]2O)[C@](C)(OC)C[C@@H](C)C(=O)[C@H](C)[C@H]2N(CCc3ccc(F)c(Cl)c3)C(=O)O[C@]12C [Example 28, 3'-N-Desmethyl-3'-N-isopropyl-11-deoxy-11-[carboxy-(3-chloro-4-fluorophenethylamino)]-6-O-methyl-erythromycin A 11,12-(cyclic carbamate)] | 0.324 | 3.02
CC[C@H]1OC(=O)[C@H](C)[C@@H](O[C@H]2C[C@@](C)(OC)[C@@H](O)[C@H](C)O2)[C@H](C)[C@@H](O[C@@H]2O[C@H](C)C[C@H](N(C)CC3CC3)[C@H]2O)[C@](C)(OC)C[C@@H](C)C(=O)[C@H](C)[C@H]2N(CCc3ccc(F)c(Cl)c3)C(=O)O[C@]12C [Example 29, 3'-N-Desmethyl-3'-N-cyclopropylmethyl-11-deoxy-11-(3-chloro-4-fluorophenethylamino)-6-O-methyl-erythromycin A 11,12-(cyclic carbamate)] | 0.537 | 1.07
CC[C@H]1OC(=O)[C@H](C)[C@@H](O[C@H]2C[C@@](C)(OC)[C@@H](O)[C@H](C)O2)[C@H](C)[C@@H](O[C@@H]2O[C@H](C)C[C@H](N(C)C3CCC3)[C@H]2O)[C@](C)(OC)C[C@@H](C)C(=O)[C@H](C)[C@H]2N(CCc3ccc(F)c(F)c3)C(=O)O[C@]12C [Example 30, 3'-N-Desmethyl-3'-N-cyclobutyl-11-deoxy-11-[carboxy-(3,4-difluorophenethylamino)]-6-O-methyl-erythromycin A 11,12-(cyclic carbamate)] | 0.513 | 5.25
CC[C@H]1OC(=O)[C@H](C)[C@@H](O[C@H]2C[C@@](C)(OC)[C@@H](O)[C@H](C)O2)[C@H](C)[C@@H](O[C@@H]2O[C@H](C)C[C@H](N(C)C3CCCC3)[C@H]2O)[C@](C)(OC)C[C@@H](C)C(=O)[C@H](C)[C@H]2N(CCc3ccc(F)c(F)c3)C(=O)O[C@]12C [Example 31, 3'-N-Desmethyl-3'-N-cyclopentyl-11-deoxy-11-[carboxy-(3,4-difluorophenethylamino)]-6-O-methyl-erythromycin A 11,12-(cyclic carbamate)] | 0.269 | 5.75

Now from value to molecule:

Ki [1] [nM] | Kb (rat pituitary cells) [nM] | Structure (SMILES)
0.0832 | 26.3 | CCCN(C)[C@H]1C[C@@H](C)O[C@@H](O[C@@H]2[C@@H](C)[C@H](O[C@H]3C[C@@](C)(OC)[C@@H](O)[C@H](C)O3)[C@@H](C)C(=O)O[C@H](CC)[C@@]3(C)OC(=O)N(CCc4ccc(F)c(F)c4)[C@@H]3[C@@H](C)C(=O)[C@H](C)C[C@@]2(C)OC)[C@@H]1O [Example 32, 3'-N-Desmethyl-3'-N-n-propyl-11-deoxy-11-[carboxy-(3,4-difluorophenethylamino)]-6-O-methyl-erythromycin A 11,12-(cyclic carbamate)]
0.676 | 3.98 | CC[C@H]1OC(=O)[C@H](C)[C@@H](O[C@H]2C[C@@](C)(OC)[C@@H](O)[C@H](C)O2)[C@H](C)[C@@H](O[C@@H]2O[C@H](C)C[C@H](N(C)CC3CC3)[C@H]2O)[C@](C)(OC)C[C@@H](C)C(=O)[C@H](C)[C@H]2N(CCc3ccc(F)c(F)c3)C(=O)O[C@]12C [Example 33, 3'-N-Desmethyl-3'-N-cyclopropylmethyl-11-deoxy-11-[carboxy-(3,4-difluorophenethylamino)]-6-O-methyl-erythromycin A 11,12-(cyclic carbamate)]
